Data taken from the NIST ThermoML archive (doi:10.1021/je700260f).
Numbers after ± are expanded uncertainties.

Settings: Liquid, Vibrating tube method

FC(C(F)(F)F)C(F)(F)F [1,1,1,2,3,3,3-heptafluoropropane]
Settings	mass density [kg/m3]
333.16 K, 21595 kPa	1400.1 ± 1.6
333.16 K, 21615 kPa	1400.2 ± 1.6
333.16 K, 21797 kPa	1401.1 ± 1.6
333.16 K, 21860 kPa	1401.5 ± 1.6
333.16 K, 21957 kPa	1401.9 ± 1.6
333.16 K, 21990 kPa	1402 ± 1.6
333.16 K, 22016 kPa	1402.3 ± 1.6
333.16 K, 22042 kPa	1402.3 ± 1.6
333.16 K, 22082 kPa	1402.5 ± 1.6
333.16 K, 22116 kPa	1402.8 ± 1.6
333.16 K, 22154 kPa	1402.9 ± 1.6
333.16 K, 22183 kPa	1403.1 ± 1.6
333.16 K, 22220 kPa	1403.2 ± 1.6
333.16 K, 22249 kPa	1403.6 ± 1.6
333.16 K, 22279 kPa	1403.5 ± 1.6
333.16 K, 22309 kPa	1403.8 ± 1.6
333.16 K, 22335 kPa	1403.8 ± 1.6
333.16 K, 22370 kPa	1404.1 ± 1.6
333.16 K, 22404 kPa	1404.2 ± 1.6
333.16 K, 22435 kPa	1404.3 ± 1.6
333.16 K, 22473 kPa	1404.6 ± 1.6
333.16 K, 22511 kPa	1404.8 ± 1.6
333.16 K, 22537 kPa	1404.9 ± 1.6
333.16 K, 22575 kPa	1405.2 ± 1.6
333.16 K, 22605 kPa	1405.3 ± 1.6
333.16 K, 22642 kPa	1405.4 ± 1.6
333.16 K, 22672 kPa	1405.6 ± 1.6
333.16 K, 22698 kPa	1405.8 ± 1.6
333.16 K, 22736 kPa	1405.9 ± 1.6
333.16 K, 22762 kPa	1406.1 ± 1.6
333.16 K, 22980 kPa	1407.1 ± 1.6
333.16 K, 23011 kPa	1407.2 ± 1.6
333.16 K, 23037 kPa	1407.4 ± 1.6
333.16 K, 23068 kPa	1407.5 ± 1.6
333.16 K, 23104 kPa	1407.9 ± 1.6
333.16 K, 23133 kPa	1407.8 ± 1.6
333.16 K, 23162 kPa	1408 ± 1.6
333.16 K, 23193 kPa	1408.1 ± 1.6
333.16 K, 23228 kPa	1408.3 ± 1.6
333.16 K, 23254 kPa	1408.5 ± 1.6
333.16 K, 23297 kPa	1408.8 ± 1.6
333.16 K, 23324 kPa	1408.8 ± 1.6
333.16 K, 23358 kPa	1409 ± 1.6
333.16 K, 23425 kPa	1409.3 ± 1.6
333.16 K, 23453 kPa	1409.5 ± 1.6
333.16 K, 23480 kPa	1409.5 ± 1.6
333.16 K, 23515 kPa	1409.6 ± 1.6
333.16 K, 23559 kPa	1410 ± 1.6
333.16 K, 23594 kPa	1410.2 ± 1.6
333.16 K, 23633 kPa	1410.3 ± 1.6
333.16 K, 23662 kPa	1410.4 ± 1.6
333.16 K, 23693 kPa	1410.4 ± 1.6
333.16 K, 23728 kPa	1410.8 ± 1.6
333.16 K, 23763 kPa	1411 ± 1.6
333.16 K, 23795 kPa	1411 ± 1.6
333.16 K, 23823 kPa	1411.3 ± 1.6
333.16 K, 23890 kPa	1411.6 ± 1.6
333.16 K, 23921 kPa	1411.7 ± 1.6
333.16 K, 23957 kPa	1411.9 ± 1.6
333.16 K, 23993 kPa	1412 ± 1.6
333.16 K, 24020 kPa	1412.2 ± 1.6
333.16 K, 24055 kPa	1412.4 ± 1.6
333.16 K, 24089 kPa	1412.4 ± 1.6
333.16 K, 24110 kPa	1412.7 ± 1.6
333.16 K, 24140 kPa	1412.7 ± 1.6
333.16 K, 24184 kPa	1413 ± 1.6
333.16 K, 24206 kPa	1413.1 ± 1.6
333.16 K, 24242 kPa	1413.2 ± 1.6
333.16 K, 24269 kPa	1413.3 ± 1.6
333.16 K, 24304 kPa	1413.6 ± 1.6
333.16 K, 24333 kPa	1413.8 ± 1.6
333.16 K, 24369 kPa	1413.7 ± 1.6
333.16 K, 24396 kPa	1414 ± 1.6
333.16 K, 24436 kPa	1414.2 ± 1.6
333.16 K, 24468 kPa	1414.3 ± 1.6
333.16 K, 24500 kPa	1414.4 ± 1.6
333.16 K, 24531 kPa	1414.6 ± 1.6
333.16 K, 24558 kPa	1414.7 ± 1.6
333.16 K, 24594 kPa	1414.9 ± 1.6
333.16 K, 24621 kPa	1415.1 ± 1.6
333.16 K, 24657 kPa	1415.2 ± 1.6
333.16 K, 24688 kPa	1415.3 ± 1.6
333.16 K, 24720 kPa	1415.5 ± 1.6
333.16 K, 24751 kPa	1415.7 ± 1.6
333.16 K, 24782 kPa	1415.8 ± 1.6
333.16 K, 24810 kPa	1415.9 ± 1.6
333.16 K, 24838 kPa	1416 ± 1.6
333.16 K, 24869 kPa	1416 ± 1.6
333.16 K, 24910 kPa	1416.4 ± 1.6
333.16 K, 24944 kPa	1416.5 ± 1.6
333.16 K, 24980 kPa	1416.7 ± 1.6
333.16 K, 25007 kPa	1416.8 ± 1.6
333.16 K, 25039 kPa	1417.1 ± 1.6
333.16 K, 25088 kPa	1417.1 ± 1.6
333.16 K, 25111 kPa	1417.2 ± 1.6
333.17 K, 17403 kPa	1376.8 ± 1.6
333.17 K, 17429 kPa	1376.9 ± 1.6
333.17 K, 17457 kPa	1377.4 ± 1.6
333.17 K, 18467 kPa	1383.1 ± 1.6
333.17 K, 18490 kPa	1383 ± 1.6
333.17 K, 18517 kPa	1383.4 ± 1.6
333.17 K, 18552 kPa	1383.6 ± 1.6
333.17 K, 23382 kPa	1409 ± 1.6
